Patent publication US12187723B2 (BRISTOL-MYERS SQUIBB COMPANY, priority 2019, dated 2025)
pIC50: −log10 of the molar value.

Tests used:
Type in all cases: cell-based
[1] = biological target: T1, human TLR7 (Homo sapiens, UniProt Q9NYK1); experiment: TLR7 inhibition reporter assay (HEK-Blue SEAP); conditions: HEK-Blue cells overexpressing human TLR7, gardiquimod 7.5 μM, 22 hour incubation
T1 construct: host or cells: HEK-Blue cells
T1 sequence (Q9NYK1 27-1049): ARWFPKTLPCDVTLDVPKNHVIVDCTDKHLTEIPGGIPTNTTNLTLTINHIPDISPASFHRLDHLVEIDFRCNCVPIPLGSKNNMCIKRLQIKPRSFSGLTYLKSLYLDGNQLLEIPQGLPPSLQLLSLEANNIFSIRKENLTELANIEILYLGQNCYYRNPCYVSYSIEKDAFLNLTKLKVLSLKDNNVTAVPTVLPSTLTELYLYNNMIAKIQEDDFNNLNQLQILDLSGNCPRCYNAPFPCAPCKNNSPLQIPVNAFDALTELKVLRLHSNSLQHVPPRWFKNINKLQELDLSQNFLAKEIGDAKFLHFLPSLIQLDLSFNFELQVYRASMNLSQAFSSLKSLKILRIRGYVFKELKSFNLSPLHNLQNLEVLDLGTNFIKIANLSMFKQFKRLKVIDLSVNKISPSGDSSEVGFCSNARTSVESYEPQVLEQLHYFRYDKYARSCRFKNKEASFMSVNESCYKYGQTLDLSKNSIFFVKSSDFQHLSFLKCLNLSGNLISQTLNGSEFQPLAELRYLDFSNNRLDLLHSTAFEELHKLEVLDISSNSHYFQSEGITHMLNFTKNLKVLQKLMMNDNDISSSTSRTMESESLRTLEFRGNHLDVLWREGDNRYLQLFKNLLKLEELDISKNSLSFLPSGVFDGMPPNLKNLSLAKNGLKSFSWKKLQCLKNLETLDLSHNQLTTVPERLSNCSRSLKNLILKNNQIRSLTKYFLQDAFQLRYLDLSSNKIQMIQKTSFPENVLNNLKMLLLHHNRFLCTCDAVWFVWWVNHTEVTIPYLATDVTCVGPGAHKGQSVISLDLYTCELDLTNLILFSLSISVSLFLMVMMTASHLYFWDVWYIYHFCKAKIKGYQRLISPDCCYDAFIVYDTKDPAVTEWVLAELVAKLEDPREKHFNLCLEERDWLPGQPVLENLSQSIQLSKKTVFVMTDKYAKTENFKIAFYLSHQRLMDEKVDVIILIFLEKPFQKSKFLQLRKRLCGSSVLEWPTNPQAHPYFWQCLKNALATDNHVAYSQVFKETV
Procedure: (§1) TLR7/8/9 Inhibition Reporter Assays
Briefly, cells are seeded into Greiner 384 well plates (15000 cells per well for TLR7, 20,000 for TLR8 and 25,000 for TLR9) and then treated with test compounds in DMSO to yield a final dose response concentration range of 0.05 nM-50 μM. […] After a 22 hour incubation at 37° C., 5% CO2, SEAP levels are determined with the addition of HEK-Blue™ Detection reagent (Invivogen), a cell culture medium that allows for detection of SEAP, according to manufacturer's specifications. The percent inhibition is determined as the % reduction in the HEK-Blue signal present in wells treated with agonist plus DMSO alone compared to wells treated with a known inhibitor.

[2] = biological target: T2, human TLR8 (Homo sapiens, UniProt Q9NR97); experiment: TLR8 inhibition reporter assay (HEK-Blue SEAP); conditions: HEK-Blue cells overexpressing human TLR8, R848 15.9 μM, 22 hour incubation
T2 construct: host or cells: HEK-Blue cells
T2 sequence (Q9NR97 27-1041): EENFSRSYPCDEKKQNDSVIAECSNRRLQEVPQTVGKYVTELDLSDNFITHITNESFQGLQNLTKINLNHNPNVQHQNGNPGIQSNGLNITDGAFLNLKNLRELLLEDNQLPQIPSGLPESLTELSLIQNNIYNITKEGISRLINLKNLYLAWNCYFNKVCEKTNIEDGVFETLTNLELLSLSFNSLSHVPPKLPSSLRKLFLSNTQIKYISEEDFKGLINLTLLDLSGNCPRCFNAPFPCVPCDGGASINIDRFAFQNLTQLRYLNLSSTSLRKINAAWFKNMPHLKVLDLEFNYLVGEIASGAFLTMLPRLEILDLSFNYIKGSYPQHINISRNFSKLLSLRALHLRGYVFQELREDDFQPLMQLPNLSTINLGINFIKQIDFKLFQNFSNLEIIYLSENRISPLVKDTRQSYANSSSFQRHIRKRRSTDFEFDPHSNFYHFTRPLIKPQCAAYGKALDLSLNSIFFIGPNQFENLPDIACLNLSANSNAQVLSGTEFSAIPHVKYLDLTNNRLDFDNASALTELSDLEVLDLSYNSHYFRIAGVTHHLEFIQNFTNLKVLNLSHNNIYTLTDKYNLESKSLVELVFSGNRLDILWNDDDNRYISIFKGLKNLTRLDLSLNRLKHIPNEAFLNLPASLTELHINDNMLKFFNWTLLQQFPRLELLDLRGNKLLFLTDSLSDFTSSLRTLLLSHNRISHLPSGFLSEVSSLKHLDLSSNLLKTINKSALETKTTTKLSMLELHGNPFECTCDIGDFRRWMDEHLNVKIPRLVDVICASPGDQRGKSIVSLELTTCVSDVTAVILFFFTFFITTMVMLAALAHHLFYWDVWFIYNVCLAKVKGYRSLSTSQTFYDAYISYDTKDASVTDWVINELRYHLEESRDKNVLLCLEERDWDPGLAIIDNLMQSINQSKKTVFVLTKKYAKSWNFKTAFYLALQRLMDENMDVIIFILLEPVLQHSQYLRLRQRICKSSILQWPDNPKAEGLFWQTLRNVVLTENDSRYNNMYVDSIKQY
Procedure: as §1
(§2) HEK-Blue™-cells (Invivogen) overexpressing human TLR7, TLR8 or TLR9 receptors were used for screening inhibitors of these receptors using an inducible SEAP (secreted embryonic alkaline phosphatase) reporter gene under the control of the IFN-β minimal promoter fused to five NF-κB and AP-1-binding sites. Briefly, cells are seeded into Greiner 384 well plates (15000 cells per well for TLR7, 20,000 for TLR8 and 25,000 for TLR9) and then treated with test compounds in DMSO to yield a final dose response concentration range of 0.05 nM-50 μM. After a 30 minute compound pre-treatment at room temperature, the cells are then stimulated with a TLR7 ligand (gardiquimod at a final concentration of 7.5 μM), TLR8 ligand (R848 at a final concentration of 15.9 μM) or TLR9 ligand (ODN2006 at a final concentration of 5 nM) to activate NF-κB and AP-1 which induce the production of SEAP. After a 22 hour incubation at 37° C., 5% CO2, SEAP levels are determined with the addition of HEK-Blue™ Detection reagent (Invivogen), a cell culture medium that allows for detection of SEAP, according to manufacturer's specifications. The percent inhibition is determined as the % reduction in the HEK-Blue signal present in wells treated with agonist plus DMSO alone compared to wells treated with a known inhibitor.

[3] = biological target: T3, human TLR9 (Homo sapiens, UniProt Q9NR96); experiment: TLR9 inhibition reporter assay (HEK-Blue SEAP); conditions: HEK-Blue cells overexpressing human TLR9, ODN2006 5 nM, 22 hour incubation
T3 construct: host or cells: HEK-Blue cells
T3 sequence (Q9NR96 26-1032): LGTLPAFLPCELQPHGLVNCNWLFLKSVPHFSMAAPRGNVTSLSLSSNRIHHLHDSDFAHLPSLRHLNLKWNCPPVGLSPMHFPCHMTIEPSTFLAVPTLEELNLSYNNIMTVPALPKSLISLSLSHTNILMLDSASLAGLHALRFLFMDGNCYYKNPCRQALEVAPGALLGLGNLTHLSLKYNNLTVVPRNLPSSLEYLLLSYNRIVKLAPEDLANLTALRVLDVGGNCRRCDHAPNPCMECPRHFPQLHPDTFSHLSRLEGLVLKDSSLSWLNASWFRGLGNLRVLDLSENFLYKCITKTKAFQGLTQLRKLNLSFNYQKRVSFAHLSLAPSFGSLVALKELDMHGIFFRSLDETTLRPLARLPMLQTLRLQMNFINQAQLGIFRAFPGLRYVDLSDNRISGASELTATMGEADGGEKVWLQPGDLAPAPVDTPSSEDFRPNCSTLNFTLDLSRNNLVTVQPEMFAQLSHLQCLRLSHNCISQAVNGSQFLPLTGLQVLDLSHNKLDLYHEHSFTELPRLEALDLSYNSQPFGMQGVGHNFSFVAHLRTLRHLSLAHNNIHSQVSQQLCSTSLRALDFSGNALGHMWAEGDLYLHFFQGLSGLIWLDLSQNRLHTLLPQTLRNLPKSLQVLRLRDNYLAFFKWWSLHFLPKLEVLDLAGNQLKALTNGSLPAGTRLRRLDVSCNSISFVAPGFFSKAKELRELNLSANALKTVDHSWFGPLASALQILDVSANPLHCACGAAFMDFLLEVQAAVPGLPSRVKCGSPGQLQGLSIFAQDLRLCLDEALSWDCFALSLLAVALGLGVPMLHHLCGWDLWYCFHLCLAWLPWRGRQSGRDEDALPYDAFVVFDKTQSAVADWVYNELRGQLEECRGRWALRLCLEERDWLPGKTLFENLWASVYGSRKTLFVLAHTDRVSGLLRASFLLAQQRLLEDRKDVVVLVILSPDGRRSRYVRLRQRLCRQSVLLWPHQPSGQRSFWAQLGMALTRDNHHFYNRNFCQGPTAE
Procedure: as §1, §2

Compound | pIC50 [1] | pIC50 [2] | pIC50 [3]
Cc1c(-c2cc3[nH]c(=O)n([C@@H]4CCCN(CC(C)(C)C)C4)c3cc2C(C)C)cn2ncnc2c1C [Example 152, (R)-5-(7,8-dimethyl-[1,2,4]triazolo[1,5-a]pyridin-6-yl)-6-isopropyl-1-(1-neopentylpiperidin-3-yl)-1,3-dihydro-2H-benzo[d]imidazol-2-one] | 8.26 | 7.61 | 
CCc1cc2c(cc1-c1cc(OC)c3ncnn3c1)[nH]c(=O)n2[C@@H]1CCCN(C2CCCOC2)C1 (stereo partly drawn) [Example 214, 6-ethyl-5-(8-methoxy-[1,2,4]triazolo[1,5-a]pyridin-6-yl)-1-((3R)-1-(tetrahydro-2H-pyran-3-yl)piperidin-3-yl)-1,3-dihydro-2H-benzo[d]imidazol-2-one] | 7.77 | 7.71 | 
CCc1cc2c(cc1-c1cc(OC)c3ncnn3c1)[nH]c(=O)n2[C@@H]1CCCN(C(C)CC)C1 (stereo partly drawn) [Example 176, 1-((3R)-1-(sec-butyl)piperidin-3-yl)-6-ethyl-5-(8-methoxy-[1,2,4]triazolo[1,5-a]pyridin-6-yl)-1,3-dihydro-2H-benzo[d]imidazol-2-one] | 8.47 | 8.10 | 
Cc1cc2c(cc1-c1cc(C)c3ncnn3c1)[nH]c(=O)n2[C@@H]1CCCN(CCC(C)C)C1 [Example 38, (R)-1-(1-isopentylpiperidin-3-yl)-6-methyl-5-(8-methyl-[1,2,4]triazolo[1,5-a]pyridin-6-yl)-1,3-dihydro-2H-benzo[d]imidazol-2-one] |  | 7.78 | 5.30
COc1cc(-c2cc3[nH]c(=O)n(C4CCC(N5CC6(C5)CS(=O)(=O)C6)CC4)c3cc2C(C)C)cn2ncnc12 (single isomer, unassigned) [Example 244, 1-(4-(2,2-dioxido-2-thia-6-azaspiro[3.3]heptan-6-yl)cyclohexyl)-6-isopropyl-5-(8-methoxy-[1,2,4]triazolo[1,5-a]pyridin-6-yl)-1,3-dihydro-2H-benzo[d]imidazol-2-one] | 8.08 | 8.45 | 
